The nature of this data set: Monitoring of recipient monkeys by blood test during immunosuppressant administration. The note with it: blood test after start of administration. It counts as in vivo, cynomolgus monkey. As to the method: Regarding the start day, the day of transplantation is represented by (0), and the preceding days are represented by the minus sign (−). Specifically, in the therapy, tacrolimus (0.02 mg/kg im×2/day; day −9 from start day), abatacept (50 mg/kg iv×1/week; day 7 from start day), and mycophenolate mofetil (40 mg/kg po×2/day; day −5 from start day) were used. The administration of methylprednisolone (10 mg/kg iv) was also carried out from day 0 from the start day, which was changed to oral administration (5 mg/kg) from the next day. […] Furthermore, thymoglobulin (10 mg/kg iv on day 3), rituximab (10 mg/kg iv on day 2), tocilizumab (10 mg/kg sc on day −1, 7, and 14), and etanercept (0.5 mg/kg sc on day 0, 3, 6, and 10) were administered. The concentrations of tacrolimus and mycophenolate mofetil in blood were measured twice a week, and the dose was appropriately adjusted based on the target trough level (TAC trough level: 15 to 20 ng/mL on day −9 to 2; 9 to 12 ng/ml from day 3, MMF trough level: 4 to 6 μg/mL).
The daily dietary status and activity of the recipient monkeys were monitored, and support was provided through supplementation as needed. Furthermore, the systemic condition of the monkeys was evaluated by the measurement of body weight. body temperature, and SpO2 as well as blood sampling conducted twice a week. […]

The values that follow come from patent US20240226288A1, “TRANSPLANT MATERIAL AND KIDNEY TRANSPLANT KIT” (THE JIKEI UNIVERSITY, priority 2021, published 2024).

Each structure is given as a SMILES string.

For `COc1c(C)c2c(c(O)c1C/C=C(\C)CCC(=O)OCCN1CCOCC1)C(=O)OC2` [MMF, Mycophenolate mofetil], the absorption entry was “confirmed”.
